Tested on: HepG-2 cells
Assay: mRNA sequencing, differential expression genes
Assay type: cell-based, human
Procedure: After culturing HepG-2 cells in DMEM medium with HG for 72 hours followed by treating with 20 μM CA for 0, 3, 6, 12, and 24 hours, genomic DNA from 5×10^7 cells were extracted using QIAamp® DNA Mini Kit (QIAGEN, Hilden, Germany). Each sample, 6 μg, was sent to CD Genomics Co., Ltd (New York, USA) for analysis of WGBS. Total RNA was isolated using the Promega SV total RNA isolation system (Madison, WI, USA) with DNase treatment. Each sample, 2 μg, were sent to CD Genomics Co., Ltd (New York, USA) for analysis of RNA sequencing. The same samples, 2 μg, was used for the first-strand cDNA synthesis as recommended by the manufacturer (Invitrogen, Carlsbad, CA). RT-qPCR was performed using SYBR Green as the indicator on ABI 7500 Fast Real-Time PCR System (Applied Biosystems, Foster City, CA). Amplifications of j-actin or GAPDH were used as internal controls. Relative messenger RNA (mRNA) expression was quantified with the comparative cycle threshold (Ct) method using a sutiable primer set and was expressed as 2-ΔΔCt as described previously.
Total RNA was extracted and purified from HepG-2 cells using SV total RNA isolation system (Promega, Madison, WI). Messenger RNA was purified from total RNA using poly-T oligo-attached magnetic beads. After fragmentation, the first strand cDNA was synthesized using random hexamer primers, followed by the second strand cDNA synthesis using either dUTP for directional library or dTTP for non-directional library. The library was checked with Qubit and real-time PCR for quantification and bioanalyzer for size distribution detection. Quantified libraries will be pooled and sequenced on Illumina® platforms, according to effective library concentration and data amount. Raw data (raw reads) of fastq format were first processed through in-house perl scripts. In this step, clean data (clean reads) were obtained by removing reads containing adapter, reads containing ploy-N and low-quality reads from raw data. At the same time, Q20, Q30 and GC content of the clean data were calculated. All the downstream analyses were based on clean data with high quality. The clean data were aligned to reference genome (GRCh37) using Hisat2 v2.0.5 software. Differential expression genes (DEGs) were performed using the DESeq2 R package (1.20.0). DAVID software (website located at david.ncifcrf.gov/) was used to test the statistical enrichment of DMR related genes in the GO and KEGG pathways.

CC(CCC[C@@H](C)[C@H]1CC[C@H]2[C@@H]3CC=C4C[C@@H](O)CC[C@]4(C)[C@H]3CC[C@]12C)C(=O)O (stereo partly drawn) [CA, 3β-hydroxy-5-cholestenoic acid]
Fold Change ABCF1 (down regulated gene) (20 μM CA, 6 hours): −1.35 fold
Fold Change ACTA1 (up regulated gene) (20 μM CA, 6 hours): 1.32 fold
Fold Change ACTN4 (up regulated gene) (20 μM CA, 6 hours): 3.26 fold
Fold Change ANGPTL8 (down regulated gene) (20 μM CA, 6 hours): −1.77 fold
Fold Change ARHGAP17 (up regulated gene) (20 μM CA, 6 hours): 2.50 fold
Fold Change ATG16L1 (down regulated gene) (20 μM CA, 6 hours): −1.32 fold
Fold Change C2 (down regulated gene) (20 μM CA, 6 hours): −1.14 fold
Fold Change C5orf51 (down regulated gene) (20 μM CA, 6 hours): −1.06 fold
Fold Change CD99 (up regulated gene) (20 μM CA, 6 hours): 3.60 fold
Fold Change COG5 (down regulated gene) (20 μM CA, 6 hours): −1.44 fold
Fold Change CPSF1 (down regulated gene) (20 μM CA, 6 hours): −4.45 fold
Fold Change CUTA (up regulated gene) (20 μM CA, 6 hours): 1.76 fold
Fold Change CYP1A1 (up regulated gene) (20 μM CA, 6 hours): 1.97 fold
Fold Change CYP51A1 (down regulated gene) (20 μM CA, 6 hours): −1.25 fold
Fold Change DCAF11 (down regulated gene) (20 μM CA, 6 hours): −1.74 fold
Fold Change DLG5 (up regulated gene) (20 μM CA, 6 hours): 1.44 fold
Fold Change DNHD1 (down regulated gene) (20 μM CA, 6 hours): −1.21 fold
Fold Change EEF1A1P13 (up regulated gene) (20 μM CA, 6 hours): 2.82 fold
Fold Change EEF1B2 (up regulated gene) (20 μM CA, 6 hours): 1.29 fold
Fold Change EHMT2 (up regulated gene) (20 μM CA, 6 hours): 1.16 fold
Fold Change FBL (down regulated gene) (20 μM CA, 6 hours): −1.87 fold
Fold Change FDFT1 (down regulated gene) (20 μM CA, 6 hours): −1.30 fold
Fold Change FLII (up regulated gene) (20 μM CA, 6 hours): 2.04 fold
Fold Change FST (up regulated gene) (20 μM CA, 6 hours): 1.25 fold
Fold Change FZD1 (up regulated gene) (20 μM CA, 6 hours): 1.06 fold
Fold Change GBA (up regulated gene) (20 μM CA, 6 hours): 2.25 fold
Fold Change GBP1 (up regulated gene) (20 μM CA, 6 hours): 1.37 fold
Fold Change GFUS (down regulated gene) (20 μM CA, 6 hours): −2.73 fold
Fold Change GMPR2 (up regulated gene) (20 μM CA, 6 hours): 3.88 fold
Fold Change GNL1 (up regulated gene) (20 μM CA, 6 hours): 1.59 fold
Fold Change GTF2H1 (up regulated gene) (20 μM CA, 6 hours): 1.85 fold
Fold Change GTPBP6 (down regulated gene) (20 μM CA, 6 hours): −2.08 fold
Fold Change HMGCR (down regulated gene) (20 μM CA, 6 hours): −1.55 fold
Fold Change HMGCS1 (down regulated gene) (20 μM CA, 6 hours): −2.12 fold
Fold Change HSD17B7 (down regulated gene) (20 μM CA, 6 hours): −1.05 fold
Fold Change HSPA1A (up regulated gene) (20 μM CA, 6 hours): 1.22 fold
Fold Change HSPA1B (up regulated gene) (20 μM CA, 6 hours): 1.16 fold
Fold Change IBTK (down regulated gene) (20 μM CA, 6 hours): −2.44 fold
Fold Change ID3 (down regulated gene) (20 μM CA, 6 hours): −2.65 fold
Fold Change IDI1 (down regulated gene) (20 μM CA, 6 hours): −1.86 fold
Fold Change INPP5K (up regulated gene) (20 μM CA, 6 hours): 1.04 fold
Fold Change IPO4 (down regulated gene) (20 μM CA, 6 hours): −1.51 fold
Fold Change IRF9 (up regulated gene) (20 μM CA, 6 hours): 1.42 fold
Fold Change LDLR (down regulated gene) (20 μM CA, 6 hours): −1.46 fold
Fold Change LFNG (up regulated gene) (20 μM CA, 6 hours): 1.02 fold
Fold Change LINC02119 (down regulated gene) (20 μM CA, 6 hours): −1.39 fold
Fold Change LOC729973 (down regulated gene) (20 μM CA, 6 hours): −1.08 fold
Fold Change LOC107985276 (down regulated gene) (20 μM CA, 6 hours): −1.32 fold
Fold Change LOC112268009 (up regulated gene) (20 μM CA, 6 hours): 1.19 fold
Fold Change LPCAT1 (down regulated gene) (20 μM CA, 6 hours): −1.43 fold
Fold Change MCRIP1 (up regulated gene) (20 μM CA, 6 hours): 2.17 fold
Fold Change MINCR (up regulated gene) (20 μM CA, 6 hours): 1.24 fold
Fold Change MSMO1 (down regulated gene) (20 μM CA, 6 hours): −2.30 fold
Fold Change MT1E (up regulated gene) (20 μM CA, 6 hours): 1.81 fold
Fold Change MT1F (up regulated gene) (20 μM CA, 6 hours): 2.51 fold
Fold Change MT1G (up regulated gene) (20 μM CA, 6 hours): 2.43 fold
Fold Change MT1X (up regulated gene) (20 μM CA, 6 hours): 2.15 fold
Fold Change MT2A (up regulated gene) (20 μM CA, 6 hours): 1.44 fold
Fold Change MTCH2 (down regulated gene) (20 μM CA, 6 hours): −2.50 fold
Fold Change MTMR11 (up regulated gene) (20 μM CA, 6 hours): 1.48 fold
Fold Change MVD (down regulated gene) (20 μM CA, 6 hours): −1.20 fold
Fold Change MVK (down regulated gene) (20 μM CA, 6 hours): −1.57 fold
Fold Change MYEOV (down regulated gene) (20 μM CA, 6 hours): −1.08 fold
Fold Change NDUFS1 (up regulated gene) (20 μM CA, 6 hours): 1.45 fold
Fold Change NEK10 (up regulated gene) (20 μM CA, 6 hours): 1.06 fold
Fold Change NEU4 (down regulated gene) (20 μM CA, 6 hours): −1.99 fold
Fold Change NOP9 (down regulated gene) (20 μM CA, 6 hours): −2.89 fold
Fold Change NPIPA2 (up regulated gene) (20 μM CA, 6 hours): 1.32 fold
Fold Change NUP160 (down regulated gene) (20 μM CA, 6 hours): −1.36 fold
Fold Change PAK1 (down regulated gene) (20 μM CA, 6 hours): −1.14 fold
Fold Change PAK1IP1 (down regulated gene) (20 μM CA, 6 hours): −3.71 fold
Fold Change PALLD (up regulated gene) (20 μM CA, 6 hours): 1.02 fold
Fold Change PCSK9 (down regulated gene) (20 μM CA, 6 hours): −1.08 fold
Fold Change PFKFB4 (down regulated gene) (20 μM CA, 6 hours): −1.30 fold
Fold Change PHF1 (up regulated gene) (20 μM CA, 6 hours): 1.42 fold
Fold Change PNPLA3 (down regulated gene) (20 μM CA, 6 hours): −1.42 fold
Fold Change POLR3E (down regulated gene) (20 μM CA, 6 hours): −1.12 fold
Fold Change PRPF31 (up regulated gene) (20 μM CA, 6 hours): 1.38 fold
Fold Change PRSS8 (down regulated gene) (20 μM CA, 6 hours): −1.46 fold
Fold Change PSMB3 (down regulated gene) (20 μM CA, 6 hours): −4.67 fold
Fold Change PSME2 (up regulated gene) (20 μM CA, 6 hours): 2.33 fold
Fold Change PTEN (down regulated gene) (20 μM CA, 6 hours): −1.64 fold
Fold Change PTGDR2 (up regulated gene) (20 μM CA, 6 hours): 1.58 fold
Fold Change PUF60 (down regulated gene) (20 μM CA, 6 hours): −2.01 fold
Fold Change RBFOX2 (down regulated gene) (20 μM CA, 6 hours): −1.14 fold
Fold Change RCBTB2 (up regulated gene) (20 μM CA, 6 hours): 1.18 fold
Fold Change RDH11 (down regulated gene) (20 μM CA, 6 hours): −1.06 fold
Fold Change RN7SK (down regulated gene) (20 μM CA, 6 hours): −1.58 fold
Fold Change RNF187 (up regulated gene) (20 μM CA, 6 hours): 1.25 fold
Fold Change RPS9 (down regulated gene) (20 μM CA, 6 hours): −1.14 fold
Fold Change RPS14P1 (up regulated gene) (20 μM CA, 6 hours): 1.50 fold
Fold Change RPS17 (up regulated gene) (20 μM CA, 6 hours): 3.79 fold
Fold Change RRN3 (down regulated gene) (20 μM CA, 6 hours): −1.05 fold
Fold Change RUSC1-AS1 (down regulated gene) (20 μM CA, 6 hours): −1.37 fold
Fold Change SBNO2 (up regulated gene) (20 μM CA, 6 hours): 1.13 fold
Fold Change SERTAD1 (up regulated gene) (20 μM CA, 6 hours): 1.06 fold
Fold Change SGK1 (up regulated gene) (20 μM CA, 6 hours): 1.03 fold
Fold Change SLC39A7 (up regulated gene) (20 μM CA, 6 hours): 2.59 fold
Fold Change SLC39A10 (down regulated gene) (20 μM CA, 6 hours): −1.10 fold
Fold Change SNHG32 (down regulated gene) (20 μM CA, 6 hours): −1.62 fold
Fold Change SPC25 (down regulated gene) (20 μM CA, 6 hours): −1.51 fold
Fold Change SPSB2 (up regulated gene) (20 μM CA, 6 hours): 1.18 fold
Fold Change SQLE (down regulated gene) (20 μM CA, 6 hours): −1.73 fold
Fold Change SQSTM1 (down regulated gene) (20 μM CA, 6 hours): −1.29 fold
Fold Change STARD4 (down regulated gene) (20 μM CA, 6 hours): −1.26 fold
Fold Change STAT5A (up regulated gene) (20 μM CA, 6 hours): 1.09 fold
Fold Change SYBU (up regulated gene) (20 μM CA, 6 hours): 1.09 fold
Fold Change SYNPO (up regulated gene) (20 μM CA, 6 hours): 1.14 fold
Fold Change TBCE (down regulated gene) (20 μM CA, 6 hours): −1.67 fold
Fold Change TINF2 (down regulated gene) (20 μM CA, 6 hours): −1.58 fold
Fold Change TJP1 (up regulated gene) (20 μM CA, 6 hours): 1.02 fold
Fold Change TPM1-AS (up regulated gene) (20 μM CA, 6 hours): 1.08 fold
Fold Change TRNH (down regulated gene) (20 μM CA, 6 hours): −1.08 fold
Fold Change U2AF1 (up regulated gene) (20 μM CA, 6 hours): 1.40 fold
Fold Change UGT2A3 (up regulated gene) (20 μM CA, 6 hours): 1.83 fold
Fold Change VARS1 (up regulated gene) (20 μM CA, 6 hours): 3.03 fold
Fold Change VPS11 (up regulated gene) (20 μM CA, 6 hours): 1.96 fold
Fold Change YWHAE (down regulated gene) (20 μM CA, 6 hours): −1.84 fold
number of DEGs regulated by CA, total (3 hours post treatment): 109
number of DEGs, down-regulated (3 hours post treatment): 50
number of DEGs, up-regulated (3 hours post treatment): 59
number of DEGs regulated by CA, total (6 hours): 120
number of DEGs, down-regulated (6 hours): 61
number of DEGs, up-regulated (6 hours): 59
number of DEGs regulated by CA, total (12 hours): 164
number of DEGs, down-regulated (12 hours): 80
number of DEGs, up-regulated (12 hours): 84
number of DEGs regulated by CA, total (24 hours): 245
number of DEGs, down-regulated (24 hours): 112
number of DEGs, up-regulated (24 hours): 133
